# Experimental data taken from PubChem BioAssay (NCI).
#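 Dose response: 5 concentrations. Exposure: 48 h. Format: 96-well plates. Endpoint: linear interpolation; highest concentration if not reached. The concentration for full growth arrest is given as TGI.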
# Legend:
# Assay in all cases: NCI-60 cell line screen, 48 h
# [1] = system: ACHN renal
# [2] = system: SNB-75 CNS
# [3] = system: DU-145 prostate
# [4] = system: NCI-H226 lung
# [5] = system: NCI-H23 lung
# [6] = system: SF-268 CNS
# [7] = system: TK-10 renal
# [8] = system: T-47D breast
# [9] = system: SN12C renal
# [10] = system: 786-0 renal
# [11] = system: HS 578T breast
# [12] = system: OVCAR-3 ovarian
# [13] = system: UO-31 renal
# [14] = system: RPMI-8226 leukemia
# [15] = system: UACC-257 melanoma
# [16] = system: PC-3 prostate
# [17] = system: RXF 393 renal
# [18] = system: SF-295 CNS
# [19] = system: CAKI-1 renal
# [20] = system: M14 melanoma
# [21] = system: BT-549 breast
# [22] = system: HL-60(TB) leukemia
# [23] = system: OVCAR-8 ovarian
# [24] = system: HCC-2998 colon
# [25] = system: LOX IMVI melanoma
# [26] = system: NCI-H522 lung
# [27] = system: A498 renal
# [28] = system: KM12 colon
# [29] = system: OVCAR-5 ovarian
# [30] = system: SW-620 colon
# [31] = system: SR leukemia
# [32] = system: HOP-92 NSCLC
# [33] = system: MOLT-4 leukemia
# [34] = system: SK-OV-3 ovarian
# [35] = system: MDA-MB-231 breast
# [36] = system: SK-MEL-5 melanoma
# [37] = system: COLO 205 colon
# [38] = system: SK-MEL-28 melanoma
# [39] = system: MDA-N
# [40] = system: IGROV1 ovarian
# [41] = system: OVCAR-4 ovarian
# [42] = system: EKVX NSCLC
# [43] = system: U251 CNS
# [44] = system: SK-MEL-2 melanoma
# [45] = system: HCT-116 colon
# [46] = system: NCI-H460 lung
# [47] = system: SF-539 CNS
# [48] = system: MCF7 breast
# [49] = system: SNB-19 CNS
# [50] = system: NCI/ADR-RES ovarian
# [51] = system: HCT-15 colon
# [52] = system: UACC-62 melanoma
# [53] = system: MDA-MB-435
# [54] = system: HOP-62 NSCLC
# [55] = system: CCRF-CEM leukemia
# [56] = system: HT29 colon
# [57] = system: K-562 leukemia
# [58] = system: A549 NSCLC
# [59] = system: MALME-3M melanoma
smiles,measurement,setting,value
O=c1[nH]c2cc(Cl)ccc2nc1/C(=N\Nc1ccccc1)C(O)c1ccc2c(c1)OCO2 (stereo not drawn),TGI,[1],> 100 µM
same,TGI,[2],> 100 µM
same,TGI,[3],> 100 µM
same,TGI,[4],> 100 µM
same,TGI,[5],> 100 µM
same,TGI,[6],> 100 µM
same,TGI,[7],> 100 µM
same,TGI,[8],> 100 µM
same,TGI,[9],> 100 µM
same,TGI,[10],> 100 µM
same,TGI,[11],> 100 µM
same,TGI,[12],> 100 µM
same,TGI,[13],> 100 µM
same,TGI,[14],> 100 µM
same,TGI,[15],> 100 µM
same,TGI,[16],> 100 µM
same,TGI,[17],> 100 µM
same,TGI,[18],> 100 µM
same,TGI,[19],> 100 µM
same,TGI,[20],> 100 µM
same,TGI,[21],> 100 µM
same,TGI,[22],> 100 µM
same,TGI,[23],> 100 µM
same,TGI,[24],> 100 µM
same,TGI,[25],> 100 µM
same,TGI,[26],> 100 µM
same,TGI,[27],> 100 µM
same,TGI,[28],> 100 µM
same,TGI,[29],> 100 µM
same,TGI,[30],> 100 µM
same,TGI,[31],> 100 µM
same,TGI,[32],> 100 µM
same,TGI,[33],> 100 µM
same,TGI,[34],> 100 µM
same,TGI,[35],> 100 µM
same,TGI,[36],> 100 µM
same,TGI,[37],> 100 µM
same,TGI,[38],> 100 µM
same,TGI,[39],> 100 µM
same,TGI,[40],> 100 µM
same,TGI,[41],> 100 µM
same,TGI,[42],> 100 µM
same,TGI,[43],> 100 µM
same,TGI,[44],> 100 µM
same,TGI,[45],> 100 µM
same,TGI,[46],> 100 µM
same,TGI,[47],> 100 µM
same,TGI,[48],> 100 µM
same,TGI,[49],> 100 µM
same,TGI,[50],> 100 µM
same,TGI,[51],> 100 µM
same,TGI,[52],> 100 µM
same,TGI,[53],> 100 µM
same,TGI,[54],> 100 µM
same,TGI,[55],> 100 µM
same,TGI,[56],> 100 µM
same,TGI,[57],> 100 µM
same,TGI,[58],> 100 µM
same,TGI,[59],> 100 µM
COc1cc(/C=C(\C)[N+](=O)[O-])cc(OC)c1,TGI,[1],30.3 µM
same,TGI,[2],31.8 µM
same,TGI,[3],44.6 µM
same,TGI,[4],> 94.7 µM
same,TGI,[5],37.1 µM
same,TGI,[6],35.6 µM
same,TGI,[7],26.1 µM
same,TGI,[8],16.3 µM
same,TGI,[9],31 µM
same,TGI,[10],8.95 µM
same,TGI,[11],68.6 µM
same,TGI,[12],31.8 µM
same,TGI,[13],29.1 µM
same,TGI,[14],9.04 µM
same,TGI,[15],31 µM
same,TGI,[16],34.8 µM
same,TGI,[17],13.1 µM
same,TGI,[18],53.6 µM
same,TGI,[19],27.8 µM
same,TGI,[20],28.2 µM
same,TGI,[21],33.6 µM
same,TGI,[22],4.33 µM
same,TGI,[23],29.7 µM
same,TGI,[24],55.5 µM
same,TGI,[25],11.9 µM
same,TGI,[26],3.64 µM
same,TGI,[27],25 µM
same,TGI,[28],36.8 µM
same,TGI,[29],36.1 µM
same,TGI,[30],9.16 µM
same,TGI,[31],7.04 µM
same,TGI,[32],28.2 µM
same,TGI,[33],6.16 µM
same,TGI,[34],> 100 µM
same,TGI,[35],31 µM
same,TGI,[36],31.7 µM
same,TGI,[37],20.1 µM
same,TGI,[38],33.2 µM
same,TGI,[39],17.5 µM
same,TGI,[40],17.6 µM
same,TGI,[41],33.5 µM
same,TGI,[42],33.9 µM
same,TGI,[43],32.1 µM
same,TGI,[44],34.9 µM
same,TGI,[45],31.2 µM
same,TGI,[46],39.5 µM
same,TGI,[47],16.9 µM
same,TGI,[48],21.1 µM
same,TGI,[49],> 56.2 µM
same,TGI,[50],39.8 µM
same,TGI,[51],29.9 µM
same,TGI,[52],28.7 µM
same,TGI,[53],28.3 µM
same,TGI,[54],33.7 µM
same,TGI,[55],5.77 µM
same,TGI,[56],38.5 µM
same,TGI,[57],5.52 µM
same,TGI,[58],61.5 µM
same,TGI,[59],29.4 µM
